Measured values from paper PMC5599463, “PK/PD studies on non-selective PDE inhibitors in rats using cAMP as a marker of pharmacological response” (Naunyn-Schmiedeberg's Archives of Pharmacology, 2017).
Like-named read-outs stand apart in the source and are kept apart here.

How the values were obtained:
[1] = Pharmacokinetics after i.v. administration to endotoxemic rats (compartmental modelling); format: in vivo, Male Wistar rats
Description: (§1) All compounds were directly dissolved in 0.9% sterile saline and used within 1 day of preparation. The animals were divided into five groups (n = 3–4). […] All injections (1 mL kg^−1) were given to the tail vein of the rat under isoflurane anaesthesia. […] Subsequently, samples were kept on ice and centrifuged for 10 min at 3000×g at 4 °C (EBA 12 R, Hettich, Germany). The individual plasma samples were harvested and stored at −80 °C until analysis.
Then, the samples were extracted with 3 mL of dichloromethane for 20 min on a shaker (VXR Vibrax, IKA, Germany). Subsequently, all tubes were centrifuged (2000×g, 15 min) and organic layers were transferred to new glass tubes and evaporated under gentle stream of nitrogen at 37 °C. Dry residues were dissolved in 100 μL of mobile phase and placed in the autosampler vials. The volume of injection was set to 50 μL. The HPLC system (LaChrom Elite, Merck-Hitachi, Darmstadt, Germany) consisted of an L-2130 pump, an L-2200 autosampler, an L-2450 diode array detector and an L-2350 column oven. EZChrome Elite v. 3.2 (Merck-Hitachi) software was used for data acquisition. The analysis was performed on a LiChrospher 100 RP-18 column (250 mm × 4 mm) with a particle size of 5 μm protected with a LiChroCART (4 mm × 4 mm) guard column (Merck, Germany). The mobile phase consisted of dioxan, acetonitrile and aqueous solution of acetic acid (pH = 3.0) mixed at the ratio of 6.5:6.5:87 (v/v/v), respectively, and pumped at a flow rate of 1.2 mL min^−1. Analytical wavelength was set to 275 nm and temperature of separation was 35 °C.
To this end, one- or two-compartment pharmacokinetic models with linear or Michaelis–Menten type saturable elimination from the central compartment were tested. Both dose levels in each case were simultaneously fitted to obtain a single set of parameters. The final pharmacokinetic models for PTX and (±)-LSF were selected on the basis of visual inspection of the fitting, examination of residuals, parameter precision, Akaike Information Criteria (AIC), Bayesian Information Criteria (BIC) and analysis of the correlation matrix. Pharmacokinetic analysis was performed using Phoenix WinNonlin v. 6.3 (Pharsight Corp, Certara, St. Louis, MO, USA).

[2] = test system: cAMP levels in rat plasma; test: PK/PD (IDR model II) of plasma cAMP in LPS-challenged rats; format: in vivo, Male Wistar rats; conditions: for cAMP levels in rat plasma after administration: 40 or 80 mg kg^−1 i.v. with LPS; for IC50: Rattus norvegicus
Description: as §1
The levels of cAMP in rat plasma were measured using the same HPLC system and a fluorescence detector (model FL-2485). The analysis was performed after incubation of plasma with 2-chloroacetaldehyde as a derivatization reagent in elevated temperature to form the fluorescing derivative—1,N^6-etheno-cAMP. To 100 μL of plasma (or plasma spiked with water standard solution of cAMP), 15 μL of 2 M 2-chloroacetaldehyde solution and 50 μL of 0.5 M acetate buffer (pH = 4.5) were added to a snap-cap tubes. Samples were then vortex-mixed (Reax top, Heidolph, Germany) for 20 s and incubated at 80 °C for 20 min. Thereafter, the reaction mixture was cooled on ice, the samples were centrifuged (3000×g, 10 min) and 100 μL of supernatants was placed in the autosampler vials. The volume of injection was 50 μL. The separation was performed at isocratic conditions at 35 °C using the mobile phase composed of 20 mM citric-phosphate buffer (pH = 3.2) and methanol mixed at the ratio of 91:9 (v/v) and pumped at a flow rate of 1.3 mL min^−1. The excitation and emission wavelengths were set to 280 and 420 nm, respectively. In these conditions, the retention time of 1,N^6-etheno-cAMP was 6 min.
Changes in plasma cAMP concentrations (CcAMP) over time following each compound administration may be described by the following equation:
1 dCcAMP/dt=kin−kout⋅It⋅CcAMP
3 It=1−Imax⋅Cp^γ/IC50^γ+Cp^γ
The second approach assumes that both compounds under investigation act with different potencies. Based on the results of the in vitro study, an additive interaction model was used (Eq. 4):
I max and γ in Eqs. (3) and (4) were fixed to 1 during fitting procedure.
(§2) The peak cAMP and TNF-α plasma levels following administration of LPS alone or LPS simultaneously with both doses of each compound were compared using a one-way ANOVA and Tukey’s HSD post hoc test. The normality of data distribution was checked by Shapiro–Wilk test. The relationship between decimal logarithms of peak cAMP and TNF-α plasma concentrations was verified by least squares linear regression analysis. All statistical analyses were performed using Statistica v. 12 (StatSoft Inc., USA). The significance level p was set at 0.05.

TNF-α plasma levels = test: Plasma TNF-α levels in endotoxemic rats (ELISA); format: in vivo, Male Wistar rats; conditions: both doses (40 and 80 mg kg^−1 i.v.) with LPS, 90 min, p < 0.05
Description: as §1
Plasma TNF-α levels were measured by rat TNF-α Quantikine ELISA kit (R&D Systems, Minneapolis, MN, USA) according to the manufacturer’s protocol. The limit of quantification was 12.5 pg mL^−1.
as §2

[3] = test system: plasma cAMP concentrations; set-up: method as in Cheng et al. [1997]; conditions: ref Cheng et al. [1997], cited from earlier work; for plasma cAMP concentrations in mice: 10 mg kg^−1 p.o.; for cAMP levels in mice: 10 times higher dose than that of the PDE4 inhibitors (10 mg kg^−1 p.o.)
[4] = target: T1, human recombinant PDE4B (hrPDE4B) (Homo sapiens, UniProt Q07343); test: PDE-Glo Phosphodiesterase Assay, hrPDE4B inhibition; format: biochemical; conditions: non-linear regression, in vitro
T1 construct: purchased SignalChem, Richmond, Canada
Description: (§3) The tested compounds were dissolved in DMSO, and a serial dilution of the inhibitors was performed using 1× PDE-Glo reaction buffer. Then, 1 μL of diluted inhibitors and 2.5 μL of cAMP solution were added to each well. After 10 min of incubation in 30 °C, 2.5 μL of PDE-Glo™ Termination Buffer and 2.5 μL of PDE-Glo™ Detection Solution were added and the plate was incubated for 20 min at room temperature. Finally, 10 μL of Kinase-Glo® Reagent was pipetted to each well and after 10 min of incubation, the luminescence was measured using a microplate luminometer (POLARstar Omega, BMG LABTECH, Ortenberg, Germany). All data points are the average of two determinations.

[5] = target: T2, human recombinant PDE7A (hrPDE7A) (Homo sapiens, UniProt Q13946); test: PDE-Glo Phosphodiesterase Assay, hrPDE7A inhibition; format: biochemical; conditions: for IC50: hrPDE7A, non-linear regression, in vitro
T2 construct: purchased SignalChem, Richmond, Canada
Description: as §3, with “Briefly, 1,5 μl of 1× PDE-Glo reaction buffer containing 10 mU of purified hrPDE4B or hrPDE7A (SignalChem, Richmond, Canada) was pipetted into 384-well plate wells (Thermo Scientific, USA). The tested” for “The tested”

cAMP plasma levels = conditions: cited from earlier work
[6] = test system: IL-12-induced murine T helper 1 (Th1) differentiation; set-up: method as in Bright et al. [1998]; conditions: dose-dependent manner; ref Bright et al. [1998]; cited from earlier work
[7] = set-up: method as in Wyska et al. [2007]; conditions: mice; ref Wyska et al. [2007]; cited from earlier work
[8] = test system: plasma cAMP concentration; set-up: method as in Tanahashi et al. [1999]; conditions: ref Tanahashi et al. [1999]; cited from earlier work
[9] = test system: plasma cAMP concentrations; test: Plasma cAMP in rats with endotoxemia after i.p. theophylline (own unpublished data); format: in vivo; conditions: i.p. 50 mg kg^−1, 0.5 h after administration
[10] = Interaction indirect response model II, rats challenged with LPS, i.v., read-out: IC50 (plasma concentration producing 50% of maximum inhibition of cAMP kout), final estimate (CV%)
[11] = interaction IDR model II, endotoxemic rats, read-out: IC50 calculated using PK/PD model after conversion to

T1 sequence (Q07343 whole entry): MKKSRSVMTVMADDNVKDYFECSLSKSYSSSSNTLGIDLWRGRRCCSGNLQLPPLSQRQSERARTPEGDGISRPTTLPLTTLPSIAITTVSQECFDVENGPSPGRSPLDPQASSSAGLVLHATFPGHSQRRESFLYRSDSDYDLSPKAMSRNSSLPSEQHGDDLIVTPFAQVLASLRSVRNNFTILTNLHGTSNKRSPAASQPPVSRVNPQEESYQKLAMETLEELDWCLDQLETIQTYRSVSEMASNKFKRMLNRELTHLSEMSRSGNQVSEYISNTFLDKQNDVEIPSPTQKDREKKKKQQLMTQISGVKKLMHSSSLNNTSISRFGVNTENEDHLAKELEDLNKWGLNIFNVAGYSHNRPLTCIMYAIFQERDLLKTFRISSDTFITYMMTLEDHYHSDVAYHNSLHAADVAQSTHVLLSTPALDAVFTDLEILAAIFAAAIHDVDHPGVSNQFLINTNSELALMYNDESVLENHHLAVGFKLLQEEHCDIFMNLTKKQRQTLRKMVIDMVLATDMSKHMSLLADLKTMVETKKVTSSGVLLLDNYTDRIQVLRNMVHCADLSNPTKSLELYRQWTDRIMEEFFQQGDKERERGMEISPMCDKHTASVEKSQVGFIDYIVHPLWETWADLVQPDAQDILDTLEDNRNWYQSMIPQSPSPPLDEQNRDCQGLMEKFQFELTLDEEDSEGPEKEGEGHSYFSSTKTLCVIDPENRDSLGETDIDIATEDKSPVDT
T2 sequence (Q13946 whole entry): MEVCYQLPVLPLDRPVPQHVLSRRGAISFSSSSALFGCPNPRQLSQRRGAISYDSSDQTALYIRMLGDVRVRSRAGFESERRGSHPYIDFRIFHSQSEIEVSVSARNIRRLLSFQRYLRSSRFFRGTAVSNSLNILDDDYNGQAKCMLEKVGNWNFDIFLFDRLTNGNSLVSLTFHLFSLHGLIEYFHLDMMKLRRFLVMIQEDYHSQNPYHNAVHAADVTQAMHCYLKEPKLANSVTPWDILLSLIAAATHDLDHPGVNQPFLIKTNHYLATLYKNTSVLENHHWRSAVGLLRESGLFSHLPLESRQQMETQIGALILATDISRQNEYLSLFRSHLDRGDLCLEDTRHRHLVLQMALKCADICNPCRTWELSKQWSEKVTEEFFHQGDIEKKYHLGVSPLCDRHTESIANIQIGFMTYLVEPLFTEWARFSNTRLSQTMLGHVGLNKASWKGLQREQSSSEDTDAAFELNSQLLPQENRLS

CC(O)CCCCn1c(=O)c2c(ncn2C)n(C)c1=O (racemic) [(±)-LSF, (±)-1-(5-hydroxyhexyl)-3,7-dimethylpurine-2,6-dione]
VLSF (volume of (±)-LSF compartment), final estimate (CV%) ([1]; (±)-LSF parent drug, i.v. 40 and 80 mg kg^−1, endotoxemic rats, one-compartment Michaelis-Menten model): 1.22 (3.44) L kg^−1 | Km ([1]; male, Wistar, rat, plasma, iv, (±)-LSF parent drug, i.v., endotoxemic rats, read-out: Km (drug concentration at which elimination rate is half-maximal), final estimate (CV%)): 6.02 µg/mL | cAMP levels in rat plasma after administration [2]: increase in cAMP levels in rat plasma in a dose-dependent manner | lower in vivo IC50 value compared to PTX ([2]; PK/PD model, rats): approximately 20% | IC50 [2, 10]: 3.43 mg/L | IC50 [2, 11]: 12.2 µM | peak cAMP level in comparison with the group receiving LPS only ([2]; dose of 40 mg kg^−1 i.v. with LPS 1 mg kg^−1, p > 0.05): did not increase | TNF-α concentrations in plasma of endotoxemic rats (TNF-α plasma levels): significant decrease

COc1ccc(C2CNC(=O)NC2)cc1O[C@H]1C[C@@H]2CC[C@H]1C2 [CP-80,633]
plasma cAMP concentrations in mice [3]: increased plasma cAMP concentrations

CC(C)Cn1c(=O)n(C)c(=O)c2[nH]cnc21 [IBMX, 1-methyl-3-(2-methylpropyl)-7H–purine-2,6-dione]
IC50 [4]: 46.6 µM | IC50 [5]: 77.7 µM

CC(=O)CCCCn1c(=O)c2c(ncn2C)n(C)c1=O [PTX, 1-(5-oxohexyl)-3,7-dimethylpurine-2,6-dione]
cAMP plasma levels elevation compared to the placebo group (cAMP plasma levels; healthy subjects, i.v. infusion 300 mg in 1 h, measured 1 h from beginning of infusion, ref Kruuse et al. [2000]): approximately 50% | half-life ([1]; male, Wistar, rat, plasma, iv, rats, i.v., read-out: elimination half-life (t0.5)): 16.4 min | k el ([1]; male, Wistar, rat, plasma, iv, read-out: ke (rate constant for disappearance of parent compound), final estimate (CV%) (converted)): 0.000933 s⁻¹ | cAMP levels in rat plasma after administration [2]: increase in cAMP levels in rat plasma in a dose-dependent manner | IC50 [2, 10]: 4.48 mg/L | IC50 [2, 11]: 16.1 µM | TNF-α concentrations in plasma of endotoxemic rats (TNF-α plasma levels): significant decrease | IC50 [5]: > 500 µM | activity as inhibitor of hrPDE7A ([5]; in vitro assay): ineffective

C[C@@H](O)CCCCn1c(=O)c2c(ncn2C)n(C)c1=O [R-(-)-LSF]
IC50 [4]: 49.1 µM | inhibition of IL-12-induced murine Th1 differentiation [6]: inhibited | Km [7]: 15.08 mg/L | Vmax [7]: 2.33 mg/min/kg | IC50 [5]: 266 µM

C[C@H](O)CCCCn1c(=O)c2c(ncn2C)n(C)c1=O [S-(+)-LSF]
IC50 [4]: 52.5 µM | IC50 [5]: 328 µM

CC(=O)Nc1ccc(-c2c[nH]c(=O)cn2)cc1 [SKF-94,120]
cAMP levels in mice [3]: failed to alter cAMP levels significantly

CN(C(=O)CCCOc1ccc2[nH]c(=O)ccc2c1)C1CCCCC1 [cilostamide]
plasma cAMP concentration in dogs [8]: no

OCCN(CCO)c1nc(N2CCCCC2)c2nc(N(CCO)CCO)nc(N3CCCCC3)c2n1 [dipyridamole]
cAMP levels in mice [3]: failed to alter cAMP levels significantly

COc1ccc2[nH]cc(CCNC(C)=O)c2c1 [melatonin]
cAMP plasma levels in humans (cAMP plasma levels; administered orally, 1 h following administration, ref Zhdanova and Raz [1999]): significantly augmented

COc1ccc(C2CNC(=O)C2)cc1OC1CCCC1 (centres unmarked) [rolipram]
plasma cAMP concentration in dogs [8]: elevated plasma cAMP concentration in dogs in a dose-dependent manner | plasma cAMP concentrations in mice [3]: increased plasma cAMP concentrations

Cn1c(=O)c2[nH]cnc2n(C)c1=O [theophylline]
plasma levels of cAMP ([3]; mice, orally 100 mg kg^−1, 20 min post-dose): 296.9 pmol/mL | plasma concentrations of cAMP [9]: 228.22 pmol/mL

CCCSc1nc(N[C@@H]2C[C@H]2c2ccc(F)c(F)c2)c2nnn([C@@H]3C[C@H](OCCO)[C@@H](O)[C@H]3O)c2n1 [ticagrelor]
levels of cAMP in treated patients (cAMP plasma levels; patients, ref Li et al. [2017]): Elevated levels of cAMP

CCOC(=O)C1=C[C@]2(CC)CCCN3CCc4c(n1c1ccccc41)[C@@H]32 [vinpocetine]
cAMP levels in mice [3]: failed to alter cAMP levels significantly

CCCOc1ccccc1-c1nc2nn[nH]c2c(=O)[nH]1 [zaprinast]
cAMP levels in mice [3]: failed to alter cAMP levels significantly
